# Data taken from patent EP0257993B1, “Nucleic acid fragment encoding herbicide resistant plant acetolactate synthase” (priority 1986, dated 1988).
# How the values were obtained:
# Hra mutant plants = test: Foliar application to Hra mutant plants; format: in vivo, Nicotiana tabacum
# [1] = tested on: progeny of tobacco transformants; test: Progeny test of seeds on SG medium with herbicide; format: in vivo, Nicotiana tabacum CV.NK326 or K14
# Protocol: (§1) Approximately 1-2 weeks late shoots developing on kanamycin-selected explants were excised with a sterile scalpel and planted in A medium containing 100 mg/l kanamycin. Root formation on selective and non-selective media was recorded within 3 weeks. Shoots which rooted in kanamycin were transferred to soil and grown in a growth chamber as described above. After 3 to 5 weeks, but before flowering had occurred, leaf tissue was excised and used for ALS assays as described in Example VI. […] Individual flowers were bagged to permit self-fertilization without cross-pollination. Mature seeds were harvested and progeny tests were conducted to determine inheritance of the herbicide resistance trait. Seeds were surface sterilized as described above, dried and planted on SG medium (1/4 MS salts, 0.75% sucrose, 0.8% Agar) in the presence or absence of herbicide (DPX-F6025, Classic®). […] A segregration ratio of 3 resistant progeny to 1 sensitive indicated the presence of a single-site insertion of the SURB-Hra gene in the trasnformant which was stably inherited. […] Higher ratios of resistant to sensitive progeny indicated multiple insertions at unlinked positions in the genome. The 15/1 ratio indicates the presence of 2 unlinked SURB-Hra genes and 255/1 ratio indicates 4 unlinked SURB-Hra genes in the transformants K14 #40 and K14 #7, respectively.
# ALS [2] = test: ALS assay of leaf extracts, wild type tobacco; format: biochemical, Nicotiana tabacum CV.NK326 or K14; settings: DPX-F6025 at 10ppb, activity without herbicide = 100 percent
# Protocol: as §1
# Keep on ice. • 2. […] Read at OD 530.
# ALS [3] = test: ALS assay of leaf extracts, wild-type tomato; format: biochemical, Lycopersicon esculentum var. Herbst Red Cherry
# Protocol: After approximately 2-4 weeks, shoots developing off of kanamycin-selected cotyledons were excised and planted in OMS media containing 500 mg/L cefotaxime and 100 mg/L kanamycin. Tomato shoots which rooted in kanamycin after about 2-3 weeks were transferred to soil in 8" pots and covered with plastic bags. The plants were grown under mixed fluorescent and incandescent lights for a 12 hr, 24°C day; 12 hr, 20°C night cycle, with approximately 80% relative humidity, for one week before removing the plastic bags. The plants were grown for another 2-4 weeks before performing ALS assays. […]
# Keep on ice. • 2. […] 16K rpm, 4°C. • 4. […] Incubate on ice for 30 minutes. • 6. […] Decant supernatant. • 7. Resuspend pellet in 1 ml cold column buffer. • 8. […] Let this run through column. • 9. Elute proteins with 2X volume of extract loaded. […] Incubate reaction for 1 hour, 30°C. • 12. […] Spin in microfuge 5 minutes. • 13. […] Read at OD 530.
# tobacco callus = test: Growth of tobacco mutant callus (C3, S4, Hra) on herbicide; format: cell-based, Nicotiana tabacum var. Xanthi
# Protocol: (§2) Callus cultures of sensitive tobacco (Nicotiana tabacum var. Xanthi) were exposed to sulfometuron methyl at 2 ppb according to the method described by Chaleff, U.S. 4,443,971. […] Plants were regenerated from Hra callus cultures. […] ALS activity in extracts of leaves of wild type and homozygous Hra mutant tobacco plants was determined.
# ALS [4] = format: biochemical, Nicotiana tabacum; settings: C3 and S4 lines
# Protocol: as §2
molecule,measurement,setting,value
CC(C)C1(C)N=C(c2ncccc2C(=O)O)NC1=O.CC(C)N (stereo not drawn),cross resistance to foliar application,Hra mutant plants,cross resistant
"6-(4-isopropyl-4-methyl-5-oxo-2-imidazolin-2-yl)-m-toluic acid and p-toluic acid, methyl esters",cross resistance to foliar application,Hra mutant plants,cross resistant
"COc1nc(C)nc(NC(=O)NS(=O)(=O)c2ccccc2OCCCl)n1 [2-(2-chloroethoxy)-N-[(4-methoxy-6-methyl-1,3,5-triazin-2-yl)aminocarbonyl]benzenesulfonamide]",cross resistance to foliar application,Hra mutant plants,cross resistant
"CC(C)C1(C)N=C(c2nc3ccccc3cc2C(=O)O)NC1=O (stereo not drawn) [2-[4,5-dihydro-4-methyl-4-(1-methylethyl)-5-oxo-1H-imidazol-2-yl]-3-quinolinecarboxylic acid]",cross resistance to foliar application,Hra mutant plants,cross resistant
"COC(=O)c1ccccc1S(=O)(=O)NC(=O)Nc1nc(C)cc(C)n1 [2-[[(4,6-dimethylpyrimidin-2-yl)aminocarbonyl]aminosulfonyl]benzoic acid, methyl ester]",cross resistance to foliar application,Hra mutant plants,cross resistant
"CCOC(=O)c1ccccc1S(=O)(=O)NC(=O)Nc1nc(Cl)cc(OC)n1 [2-[[(4-chloro-6-methoxypyrimidin-2-yl)aminocarbonyl]aminosulfonyl]benzoic acid, ethyl ester]",cross resistance to foliar application,Hra mutant plants,cross resistant
"COC(=O)c1c(C)cccc1S(=O)(=O)NC(=O)Nc1nc(C)cc(OC)n1 [2-[[(4-methoxy-6-methylpyrimidin-2-yl)aminocarbonyl]aminosulfonyl]-6-methylbenzoic acid, methyl ester]",cross resistance to foliar application,Hra mutant plants,cross resistant
"COc1nc(C)nc(NC(=O)NS(=O)(=O)c2ccccc2Cl)n1 [2-chloro-N-[(4-methoxy-6-methyl-1,3,5-triazin-2-yl)aminocarbonyl]benzenesulfonamide]",cross resistance to foliar application,Hra mutant plants,cross resistant
"Cc1cc(C)n2nc(S(=O)(=O)Nc3c(C)cccc3[N+](=O)[O-])nc2n1 [5,7-dimethyl-N-(2-methyl-6-nitrophenyl)[1,2,4]triazolo[1,5-A]pyrimidin-2-sulfonamide]",cross resistance to foliar application,Hra mutant plants,cross resistant
"CCC1C=NC(C2=NC(C)(C(C)C)C(=O)N2)=C(C(=O)O)C1 (stereo not drawn) [5-ethyl-4,5-dihydro-2-[4-methyl-4-(1-methylethyl)-5-oxo-1H-imidazol-2-yl]-3-pyridinecarboxylic acid]",cross resistance to foliar application,Hra mutant plants,cross resistant
"COc1cc(OC)nc(NC(=O)NS(=O)(=O)c2c(Cl)ccc3c2S(=O)(=O)N(C)CC3)n1 [7-chloro-N-[(4,6-dimethoxypyrimidin-2-yl)aminocarbonyl]-3,4-dihydro-2-methyl-2H-1,2-benzothiazine-8-sulfonamide, S,S-dioxide]",cross resistance to foliar application,Hra mutant plants,cross resistant
CCOC(=O)c1ccccc1S(=O)(=O)NC(=O)Nc1nc(Cl)cc(OC)n1 [DPX-F6025],Progeny Resistant/Sensitive,"[1]; K14 #7, 100ppb DPX-F6025",990/4
same,Progeny Resistant/Sensitive,"[1]; K14 #7, 1000bbp DPX-F6025",109/1
same,Progeny Resistant/Sensitive,"[1]; K14 #11, 100ppb DPX-F6025",208/85
same,Progeny Resistant/Sensitive,"[1]; K14 #11, 1000bbp DPX-F6025",127/76
same,Progeny Resistant/Sensitive,"[1]; K14 #27, 100ppb DPX-F6025",129/45
same,Progeny Resistant/Sensitive,"[1]; K14 #27, 1000bbp DPX-F6025",108/42
same,Progeny Resistant/Sensitive,"[1]; K14 #29, 100ppb DPX-F6025",192/46
same,Progeny Resistant/Sensitive,"[1]; K14 #29, 1000bbp DPX-F6025",163/67
same,Progeny Resistant/Sensitive,"[1]; K14 #32c, 100ppb DPX-F6025",140/65
same,Progeny Resistant/Sensitive,"[1]; K14 #32c, 1000bbp DPX-F6025",63/86
same,Progeny Resistant/Sensitive,"[1]; K14 #40, 100ppb DPX-F6025",218/18
same,Progeny Resistant/Sensitive,"[1]; K14 #40, 1000bbp DPX-F6025",212/26
same,Progeny Resistant/Sensitive,"[1]; K14 #41, 100ppb DPX-F6025",255/35
same,Progeny Resistant/Sensitive,"[1]; K14 #41, 1000bbp DPX-F6025",296/74
same,Progeny Resistant/Sensitive,"[1]; K14 #42, 100ppb DPX-F6025",162/74
same,Progeny Resistant/Sensitive,"[1]; K14 #42, 1000bbp DPX-F6025",77/72
same,Progeny Resistant/Sensitive,"[1]; K14 #53, 100ppb DPX-F6025",130/59
same,Progeny Resistant/Sensitive,"[1]; K14 #53, 1000bbp DPX-F6025",149/139
same,Progeny Resistant/Sensitive,"[1]; K14 #54A, 100ppb DPX-F6025",137/55
same,Progeny Resistant/Sensitive,"[1]; K14 #54A, 1000bbp DPX-F6025",100/72
same,Progeny Resistant/Sensitive,"[1]; K24 #31, 100ppb DPX-F6025",106/35
same,Progeny Resistant/Sensitive,"[1]; K24 #31, 1000bbp DPX-F6025",99/34
same,Progeny Resistant/Sensitive,"[1]; NK326 #9c, 100ppb DPX-F6025",163/49
same,Progeny Resistant/Sensitive,"[1]; NK326 #9c, 1000bbp DPX-F6025",99/63
same,Progeny Resistant/Sensitive,"[1]; NK326 #10, 100ppb DPX-F6025",93/31
same,Progeny Resistant/Sensitive,"[1]; NK326 #10, 1000bbp DPX-F6025",96/24
same,Progeny Resistant/Sensitive,"[1]; NK326 #10c, 100ppb DPX-F6025",333/45
same,Progeny Resistant/Sensitive,"[1]; NK326 #10c, 1000bbp DPX-F6025",290/76
same,Progeny Resistant/Sensitive,"[1]; NK326 #9d, 100ppb DPX-F6025",288/67
same,Progeny Resistant/Sensitive,"[1]; NK326 #9d, 1000bbp DPX-F6025",150/58
same,Progeny Resistant/Sensitive,"[1]; X14 #54, 100ppb DPX-F6025",99/38
same,Progeny Resistant/Sensitive,"[1]; X14 #54, 1000bbp DPX-F6025",92/43
same,Progeny Resistant/Sensitive,"[1]; nk326 #1, 100ppb DPX-F6025",98/37
same,Progeny Resistant/Sensitive,"[1]; nk326 #1, 1000bbp DPX-F6025",90/35
same,% Unhibited ALS Activity,ALS [2]; K14 wT,7%
same,% Unhibited ALS Activity,ALS [2]; NK326(wT),7%
same,Percent Uninhibited ALS Activity,ALS [3]; 10ppb,15%
same,Percent Uninhibited ALS Activity,ALS [3]; 100ppb,5%
same,Percent Uninhibited ALS Activity,ALS [3]; 1000ppb,4%
"Cc1cc(C)n2nc(S(=O)(=O)Nc3c(Cl)cccc3Cl)nc2n1 [N-(2,6-dichlorphenyl)-5,7-dimethyl[1,2,4]triazolo [1,5-A]pyrimidin-2-sulfonamide]",cross resistance to foliar application,Hra mutant plants,cross resistant
"Cc1cc(C)n2nc(S(=O)(=O)Nc3c(C)cccc3Cl)nc2n1 [N-(2-chloro-6-methylphenyl)-5,7-dimethyl[1,2,4]triazolo[1,5-A]pyrimidin-2-sulfonamide]",cross resistance to foliar application,Hra mutant plants,cross resistant
"COc1cc(OC)nc(NC(=O)NS(=O)(=O)c2cccc3c2S(=O)(=O)C(C)C3)n1 (stereo not drawn) [N-[(4,6-dimethoxypyrimidin-2-yl)aminocarbonyl]-2,3-dihydro-2-methylbenzo[β]thiophene-7-sulfonamide, 1,1-dioxide]",cross resistance to foliar application,Hra mutant plants,cross resistant
COC(=O)c1ccccc1S(=O)(=O)NC(=O)Nc1nc(C)cc(C)n1 [sulfometuron methyl],selective herbicide resistance conferred by the mutation,"tobacco callus; C3 cell line (SURA-C3, proline-to-glutamine at position 197)",conferred resistance
same,tolerated concentrations compared with that required to completely inhibit the growth of wild type callus,tobacco callus; Hra cell line,one thousand times greater
same,selective concentration which completely inhibits the growth,tobacco callus; S4 cell line,200 ppb
same,resistance of ALS enzyme activity compared with ALS from wild type,ALS [4],one-hundred fold
